# According to patent publication US9408852B2, “Method of lowering serum uric acid levels with (S)-tofisopam” (PHARMOS CORPORATION, priority 2011, dated 2016):
# Values joined by “and” are separate entries in the source; they are usually repeats but may differ in a detail not shown here. Identical values can stand only once.
# Key:
# [1] = tested on: urinary uric acid excretion; assay: 24 h urinary uric acid excretion in patients with hyperuricemia and gout (Example 9); format: in vivo, human; conditions: mean (M) of patients; [D 6 to D 7] from [D 1 to D 2]; 50 mg qd Day 1 and 7, tid Days 2 to 6
# Description: (§1) The study lasted 7 days, and patients were treated with placebo or 50 mg of enantiomerically-pure (S)-tofisopam once a day (qd) on Day 1 and Day 7 of the study, and with placebo or 50 mg of enantiomerically-pure (S)-tofisopam three times a day (tid) for Days 2 to 6 of the study. […] In Table 8, days indicated with a minus sign (e.g. D-1) indicate the time point corresponding to that number of days before treatment was initiated. For example, D-14 is the time point fourteen days before treatment was initiated.
# [2] = tested on: serum creatinine; assay: Serum creatinine in male and female patients with hyperuricemia and gout, 7 days (Example 8); format: in vivo, human
# Description: as §1, with “7,” for “8,”
# [3] = tested on: serum uric acid; assay: Serum uric acid in healthy men and postmenopausal women, single-dose and multiple-dose phases (Example 3); format: in vivo, human
# Source text: (§2) In another study in healthy men and postmenopausal women, the trial period included a single-dose phase (Day 1) and a multiple-dose phase (Days 2-6). […] With multiple-dose oral administration (twice a day (BID) or three times a day (TID) on days 2-6), this decrease was more pronounced.
# [4] = target: xanthine oxidase (Homo sapiens, UniProt P47989); assay: Xanthine oxidase inhibition; format: biochemical; conditions: unlike allopurinol
# Chain of xanthine oxidase (P47989 whole entry, species assumed): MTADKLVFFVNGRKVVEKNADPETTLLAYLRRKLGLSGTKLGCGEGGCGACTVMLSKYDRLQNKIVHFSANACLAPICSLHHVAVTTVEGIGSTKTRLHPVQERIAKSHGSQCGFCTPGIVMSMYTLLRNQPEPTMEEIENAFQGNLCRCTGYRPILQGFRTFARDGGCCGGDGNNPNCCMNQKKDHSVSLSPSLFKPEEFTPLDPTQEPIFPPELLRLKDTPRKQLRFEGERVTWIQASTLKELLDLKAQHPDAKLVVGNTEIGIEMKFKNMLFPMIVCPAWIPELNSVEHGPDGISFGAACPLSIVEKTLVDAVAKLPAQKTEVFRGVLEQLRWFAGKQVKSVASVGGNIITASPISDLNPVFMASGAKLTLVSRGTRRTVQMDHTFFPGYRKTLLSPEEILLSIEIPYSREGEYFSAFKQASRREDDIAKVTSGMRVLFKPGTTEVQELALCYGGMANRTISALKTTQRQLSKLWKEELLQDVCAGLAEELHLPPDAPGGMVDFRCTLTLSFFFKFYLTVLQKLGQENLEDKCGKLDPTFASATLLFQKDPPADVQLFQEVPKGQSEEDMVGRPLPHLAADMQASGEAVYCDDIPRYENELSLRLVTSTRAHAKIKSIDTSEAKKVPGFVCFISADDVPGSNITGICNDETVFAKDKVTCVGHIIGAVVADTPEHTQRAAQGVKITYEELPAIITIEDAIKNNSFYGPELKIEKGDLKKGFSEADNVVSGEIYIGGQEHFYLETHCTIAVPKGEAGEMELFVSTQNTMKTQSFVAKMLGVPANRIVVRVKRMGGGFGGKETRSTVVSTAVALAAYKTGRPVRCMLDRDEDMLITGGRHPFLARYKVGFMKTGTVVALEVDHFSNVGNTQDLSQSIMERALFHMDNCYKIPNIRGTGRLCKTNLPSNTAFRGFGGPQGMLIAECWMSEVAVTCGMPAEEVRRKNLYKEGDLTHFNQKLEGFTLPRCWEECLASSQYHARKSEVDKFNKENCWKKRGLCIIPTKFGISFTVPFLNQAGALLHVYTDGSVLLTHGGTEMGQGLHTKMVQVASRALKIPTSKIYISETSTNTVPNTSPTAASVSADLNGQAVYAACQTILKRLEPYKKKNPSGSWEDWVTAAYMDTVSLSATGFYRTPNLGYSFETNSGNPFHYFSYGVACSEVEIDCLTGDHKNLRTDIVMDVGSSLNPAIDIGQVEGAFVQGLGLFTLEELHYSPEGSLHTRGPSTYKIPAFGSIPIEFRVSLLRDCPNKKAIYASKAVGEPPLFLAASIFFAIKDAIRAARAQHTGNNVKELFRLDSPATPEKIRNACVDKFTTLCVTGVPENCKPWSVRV
# [5] = tested on: fractional excretion of uric acid; assay: Post hoc analysis of clinical trial specimens: fractional excretion of uric acid and renal function (Example 3); format: in vivo, human; conditions: 50 mg TID
# Source text: as §2
# [6] = tested on: urinary creatinine excretion; assay: 24 h urinary creatinine excretion in patients with hyperuricemia and gout (Example 9); format: in vivo, human; conditions: 50 mg qd Day 1 and 7, tid Days 2 to 6
# Description: as §1
# [7] = 50 mg qd Day 1 and Day 7, tid Days 2 to 6, Day 1 6 h (Day 1 0 h = 0.0), hyperuricemia and gout
# [8] = 50 mg qd Day 1 and Day 7, tid Days 2 to 6, Day 1 to Day 2: Day 1 0 h + Day 2, hyperuricemia and gout
# [9] = 50 mg qd Day 1 and Day 7, tid Days 2 to 6, Day 2 (Day 1 0 h = 0.0), hyperuricemia and gout
# [10] = 50 mg qd Day 1 and Day 7, tid Days 2 to 6, Day 3 (Day 1 0 h = 0.0), hyperuricemia and gout
# [11] = 50 mg qd Day 1 and Day 7, tid Days 2 to 6, Day 4 (Day 1 0 h = 0.0), hyperuricemia and gout
# [12] = 50 mg qd Day 1 and Day 7, tid Days 2 to 6, Day 5 (Day 1 0 h = 0.0), hyperuricemia and gout
# [13] = 50 mg qd Day 1 and Day 7, tid Days 2 to 6, Day 6 (Day 1 0 h = 0.0), hyperuricemia and gout
# [14] = 50 mg qd Day 1 and Day 7, tid Days 2 to 6, Day 6 to Day 7: Day 6 + Day 7, hyperuricemia and gout
# [15] = 50 mg qd Day 1 and Day 7, tid Days 2 to 6, Day 7 (Day 1 0 h = 0.0), hyperuricemia and gout
# [16] = 50 mg qd Day 1 and Day 7, tid Days 2 to 6, Day 8 (after treatment stopped), hyperuricemia and gout
# [17] = 50 mg qd Day 1 and Day 7, tid Days 2 to 6, Day 15 (after treatment stopped), hyperuricemia and gout
# [18] = individual patient (P#), [D 1 to D 2] from [D −2 to D −1]
# [19] = individual patient (P#), [D 6 to D 7] from [D 1 to D 2]
# [20] = mean (M) of patients, [D 1 to D 2] from [D −2 to D −1]
# [21] = mean (M) of patients, [D 6 to D 7] from [D 1 to D 2]
smiles,measurement,setting,value
CC[C@@H]1C(C)=NN=C(c2ccc(OC)c(OC)c2)c2cc(OC)c(OC)cc21 [(S)-tofisopam],"Percent change in Uu (mg/24 h), amount of uric acid excreted into the urine over 24 hours",[1],2.1%
same,"Percent change in Uu (mg/dL), concentration of uric acid in 24 hour urine",[1],−24.5%
same,"Percent change in serum creatinine, individual patients (P# 1-13)",[2]; [7],10.1% and 0.9% and 2.9% and 0.0% (2×) and 1.8% and 5.7% and 4.8% and 10.3%
same,"Percent change in serum creatinine, mean (M) of 13 patients",[2]; [7],2.5%
same,"Percent change in serum creatinine, individual patients (P# 1-13)",[2]; [8],4.4% and 0.9% and 0.5% (2×) and −1.0% and 2.3% and 0.8% and −1.3% and 6.7%
same,"Percent change in serum creatinine, mean (M) of 13 patients",[2]; [8],1.1%
same,"Percent change in serum creatinine, individual patients (P# 1-13)",[2]; [9],8.9% and 1.9% and 1.0% and −2.0% and 4.5% and 0.9% and 1.6% and −2.6% and 13.3%
same,"Percent change in serum creatinine, mean (M) of 13 patients",[2]; [9],2.1%
same,"Percent change in serum creatinine, individual patients (P# 1-13)",[2]; [10],7.6% and 3.7% and 13.6% and 2.0% and 16.2% and 10.4% and 4.8% and 17.9% and 24.0% and 14.9%
same,"Percent change in serum creatinine, mean (M) of 13 patients",[2]; [10],10.1%
same,"Percent change in serum creatinine, individual patients (P# 1-13)",[2]; [11],3.8% and −5.6% and 4.9% and −2.0% and 21.6% and −2.8% and 3.2% and 14.1% and 18.7%
same,"Percent change in serum creatinine, mean (M) of 13 patients",[2]; [11],6.1%
same,"Percent change in serum creatinine, individual patients (P# 1-13)",[2]; [12],−5.1% and −3.7% and 8.7% and 9.8% and 23.4% and 0.9% and 14.3% and 7.7% and 24.0%
same,"Percent change in serum creatinine, mean (M) of 13 patients",[2]; [12],7.2%
same,"Percent change in serum creatinine, individual patients (P# 1-13)",[2]; [13],17.7% and 7.4% and 2.9% and 4.9% and 9.9% and 0.0% and 6.3% and 7.7% and 18.7%
same,"Percent change in serum creatinine, mean (M) of 13 patients",[2]; [13],8.0%
same,"Percent change in serum creatinine, individual patients (P# 1-13)",[2]; [14],15.2% and 2.3% and 0.5% and 1.0% and 10.4% and 5.7% and 7.1% and 5.1% and 12.0%
same,"Percent change in serum creatinine, mean (M) of 13 patients",[2]; [14],5.8%
same,"Percent change in serum creatinine, individual patients (P# 1-13)",[2]; [15],12.7% and −2.8% and −1.9% and −2.9% and 10.8% and 11.3% and 7.9% and 2.6% and 5.3%
same,"Percent change in serum creatinine, mean (M) of 13 patients",[2]; [15],3.7%
same,"Percent change in serum creatinine, individual patients (P# 1-13)",[2]; [16],10.1% and −7.4% and −8.7% and −6.9% and 0.9% and −2.8% and 12.7% and 12.8% and 24.0%
same,"Percent change in serum creatinine, mean (M) of 13 patients",[2]; [16],3.8%
same,"Percent change in serum creatinine, individual patients (P# 1-13)",[2]; [17],27.8% and 9.3% and 19.4% and 4.9% and 17.1% and 23.6% and 25.4% and −2.6% and 46.7%
same,"Percent change in serum creatinine, mean (M) of 13 patients",[2]; [17],13.6%
same,Effect on serum creatinine levels,"[2]; 50 mg qd Day 1 and Day 7, tid Days 2 to 6, male and female patients with hyperuricemia and gout",does not modify
same,Serum creatinine levels once treatment was stopped after 7 days,"[2]; after 7 days of 50 mg treatment, hyperuricemia and gout",did not substantially change
same,Change from Baseline serum uric acid,"[3]; 50 mg TID (single dose Day 1), Postmenopausal women, Day 2 AM",−27%
same,Change from Baseline serum uric acid,"[3]; 50 mg TID (single dose Day 1), Postmenopausal women, Day 4 AM",−58%
same,Change from Baseline serum uric acid,"[3]; 50 mg TID (single dose Day 1), Postmenopausal women, Day 7 AM",−65%
same,Change from Baseline serum uric acid,"[3]; 50 mg TID (single dose Day 1), Young men, Day 2 AM",−19%
same,Change from Baseline serum uric acid,"[3]; 50 mg TID (single dose Day 1), Young men, Day 4 AM",−63%
same,Change from Baseline serum uric acid,"[3]; 50 mg TID (single dose Day 1), Young men, Day 7 AM",−59%
same,Change from Baseline serum uric acid,"[3]; 150 mg BID (single dose Day 1), Postmenopausal women, Day 2 AM",−48%
same,Change from Baseline serum uric acid,"[3]; 150 mg BID (single dose Day 1), Postmenopausal women, Day 4 AM",−76%
same,Change from Baseline serum uric acid,"[3]; 150 mg BID (single dose Day 1), Postmenopausal women, Day 7 AM",−71%
same,Change from Baseline serum uric acid,"[3]; 150 mg BID (single dose Day 1), Young men, Day 2 AM",−31%
same,Change from Baseline serum uric acid,"[3]; 150 mg BID (single dose Day 1), Young men, Day 4 AM",−72%
same,Change from Baseline serum uric acid,"[3]; 150 mg BID (single dose Day 1), Young men, Day 7 AM",−72%
same,Uric acid levels after a single oral dose,"[3]; 24 hours after single dose of 50 mg or 150 mg (Day 1), men and women",Decreased
same,Reductions from baseline in uric acid,"[3]; by the morning of Day 4, male and female subjects, 50 mg TID or 150 mg BID",> 50%
same,Inhibition of xanthine oxidase,[4],does not inhibit
same,Effect on other common parameters of renal function,[5],no measurable effect
same,Fractional excretion of uric acid,[5],increases
same,Renal injury,[5],no sign of renal injury
same,"Percent change in Uc (mg/24 h), amount of creatinine excreted into the urine over 24 hours",[6]; [18],47.6% and 5.5% and −22.9% and −16.8% and 11.5% and −8.7% and −5.2% and −8.1% and −15.0% and −3.5% and −11.0% and 3.8%
same,"Percent change in Uc (mg/dL), concentration of creatinine in 24 hour urine",[6]; [18],71.2% and −14.5% and 14.4% and −14.1% and −44.2% and −5.6% and 56.8% and −21.0% and −33.0% and 5.4% and −35.5% and 25.6%
same,"Percent change in Uc (mg/24 h), amount of creatinine excreted into the urine over 24 hours",[6]; [19],−14.5% and 19.2% and 15.4% and 10.8% and 7.9% and 5.9% and 5.6% and 21.6% and 5.8% and −4.8% and −10.8%
same,"Percent change in Uc (mg/dL), concentration of creatinine in 24 hour urine",[6]; [19],−31.0% and 0.2% and −33.7% and −21.3% and −15.2% and −32.1% and −38.3% and −24.0% and −11.2% and −6.0% and −30.1%
same,"Percent change in Uc (mg/24 h), amount of creatinine excreted into the urine over 24 hours",[6]; [20],−1.9%
same,"Percent change in Uc (mg/dL), concentration of creatinine in 24 hour urine",[6]; [20],0.5%
same,"Percent change in Uc (mg/24 h), amount of creatinine excreted into the urine over 24 hours",[6]; [21],5.6%
same,"Percent change in Uc (mg/dL), concentration of creatinine in 24 hour urine",[6]; [21],−22.1%
